This assay concerns TPM3-NTRK1-wt IC50 / primary target (e.g. CD74-ROS1-wt) IC50, Ba/F3 cells. The assay can be described thus: Cell assay TRKA selectivity (TRKA potency divided by primary target potency). It counts as cell-based. The following applies: for TPM3-NTRK1-wt/CD74-ROS1-G2032R: TRKA selectivity ratio: TPM3-NTRK1-wt IC50 / CD74-ROS1-G2032R IC50, Ba/F3 cells; for TPM3-NTRK1-wt/CD74-ROS1-wt: TRKA selectivity ratio: TPM3-NTRK1-wt IC50 / CD74-ROS1-wt IC50, Ba/F3 cells; for TPM3-NTRK1-wt/EML4-ALK-L1196M-G1202R: TRKA selectivity ratio: TPM3-NTRK1-wt IC50 / EML4-ALK-L1196M-G1202R IC50, Ba/F3 cells; for TPM3-NTRK1-wt/EML4-ALK-wt: TRKA selectivity ratio: TPM3-NTRK1-wt IC50 / EML4-ALK-wt IC50, Ba/F3 cells. From the text: Genes encoding CD74-ROS1 wild-type (wt), CD74-ROS1 G2032R, CD74-ROS1 S1986F, CD74-ROS1 L2026M, CD74-ROS1 D2033N, EML4-ALK wt (variant 1), EML4-ALK G1202R (variant 1), EML4-ALK L1196M/G1202R (variant 1), EML4-ALK G1202R/G1269A (variant 1), EML4-ALK G1202R/L1198F (variant 1), and TPM3-TRKA were synthesized at GeneRay, cloned into the retroviral construct pMSCV-puro (Biovector), and packaged into retroviral particles. The virus was used to infect Ba/F3 cells (RIKEN) at multiplicity of infection=1 for 1 day. Infected cells were rescued in media (RPMI-1640 with 10% fetal bovine serum and 1% streptomycin and penicillin) supplemented with mouse IL-3 (10 ng/mL) for 2 days, and stable cell lines were selected by IL-3 withdrawal and puromycin (0.8 μg/mL) for 7 days. Monoclones were selected by single-cell dilution in IL-3-free medium containing puromycin (0.8 μg/mL). Transformation of desired genes was confirmed by Sanger sequencing and western blot using the following antibodies: ROS1 (CST #3287), ALK (CST #3633), and pan-TRK (Abcam #76291).
Stable cells were plated at 1,000 cells/well (40 μL) in a 384-well plate for 1 day. Test compounds (40 nL) were then added in a 3-fold dilution series using the TECAN EVO200 liquid handler and incubated for 72 hours. Plates were equilibrated at room temperature for 15 minutes followed by addition of 40 μL CellTiter-Glo reagent (Promega). Luminescence was measured on a plate reader. Half-maximal inhibitory concentration (IC50) was calculated from percent inhibition and inhibitor concentration using four-parameter logistic regression. […] Exemplary data is given in Table 4 (nd is not determined).
TRKA selectivity was calculated by dividing a compound's TRKA potency by its primary target potency (e.g. TPM3-NTRK1-wt IC50/CD74-ROS1-wt IC50). Compound selectivity can be interpreted by binning ratio values: bin A for very high selectivity, ratio>30-fold; bin B for high selectivity, ratio>10-fold; bin C for moderate selectivity, ratio≥1; and bin D for low selectivity, ratio<1. […] (nd=not determined).

The results in this text go back to US11667649B2, “Heteroaromatic macrocyclic ether chemotherapeutic agents” (Nuvalent, Inc., priority 2020, dated 2023).

As for `C[C@H]1Oc2cc(cnc2N)-c2c(C#N)ncn2Cc2cn(C)nc2-c2ccc(F)cc21` [Example 13, (19R)-22-amino-16-fluoro-10,19-dimethyl-20-oxa-4,6,10,11,23-pentaazapentacyclo[19.3.1.0^2,^6.0^8,^12.0^13,^18]pentacosa-1(24),2,4,8,11,13,15,17,21(25),22-decaene-3-carbonitrile], the TPM3-NTRK1-wt/CD74-ROS1-G2032R entry is listed as “A (bin A for very high selectivity, ratio>30-fold)”; the TPM3-NTRK1-wt/CD74-ROS1-wt result was “A (bin A for very high selectivity, ratio>30-fold)”; the TPM3-NTRK1-wt/EML4-ALK-L1196M-G1202R result is “A (bin A for very high selectivity, ratio>30-fold)”; the TPM3-NTRK1-wt/EML4-ALK-wt result was “A (bin A for very high selectivity, ratio>30-fold)”.
Consider `C[C@H]1Oc2cc(cnc2N)-c2c(C#N)cnn2Cc2cccnc2-c2ccc(F)cc21` [Example 14, (20R)-23-amino-17-fluoro-20-methyl-21-oxa-5,6,12,24-tetraazapentacyclo[20.3.1.0^2,^6.0^8,^13.0^14,^19]hexacosa-1(25),2,4,8(13),9,11,14,16,18,22(26),23-undecaene-3-carbonitrile], for which the TPM3-NTRK1-wt/CD74-ROS1-G2032R result is “B (bin B for high selectivity, ratio>10-fold)”; the TPM3-NTRK1-wt/CD74-ROS1-wt entry is given as “A (bin A for very high selectivity, ratio>30-fold)”; the TPM3-NTRK1-wt/EML4-ALK-L1196M-G1202R result was “C (bin C for moderate selectivity, ratio≥1)”; the TPM3-NTRK1-wt/EML4-ALK-wt result is reported as “A (bin A for very high selectivity, ratio>30-fold)”.
Turning to `C[C@H]1Oc2cc(cnc2N)-c2c(C#N)noc2Cc2cn(C)nc2-c2ccc(F)cc21` [Example 15, (19R)-22-amino-16-fluoro-10,19-dimethyl-5,20-dioxa-4,10,11,23-tetraazapentacyclo[19.3.1.0^2,^6.0^8,^12.0^13,^18]pentacosa-1(24),2(6),3,8,11,13(18),14,16,21(25),22-decaene-3-carbonitrile], the TPM3-NTRK1-wt/CD74-ROS1-G2032R result is “A (bin A for very high selectivity, ratio>30-fold)”; the TPM3-NTRK1-wt/CD74-ROS1-wt result is “A (bin A for very high selectivity, ratio>30-fold)”; the TPM3-NTRK1-wt/EML4-ALK-L1196M-G1202R entry is on record as “B (bin B for high selectivity, ratio>10-fold)”; the TPM3-NTRK1-wt/EML4-ALK-wt result is recorded as “A (bin A for very high selectivity, ratio>30-fold)”.
As for `CCc1nnn2c1-c1cnc(N)c(c1)O[C@H](C)c1cc(F)ccc1-c1ncc(F)cc1C2` [Example 16, (20R)-3-ethyl-10,17-difluoro-20-methyl-21-oxa-4,5,6,12,24-pentaazapentacyclo[20.3.1.0^2,^6.0^8,^13.0^14,^19]hexacosa-1(25),2,4,8(13),9,11,14,16,18,22(26),23-undecaen-23-amine], the TPM3-NTRK1-wt/CD74-ROS1-G2032R entry is listed as “B (bin B for high selectivity, ratio>10-fold)”; the TPM3-NTRK1-wt/CD74-ROS1-wt entry is on record as “A (bin A for very high selectivity, ratio>30-fold)”; the TPM3-NTRK1-wt/EML4-ALK-L1196M-G1202R entry was “C (bin C for moderate selectivity, ratio≥1)”; the TPM3-NTRK1-wt/EML4-ALK-wt result is “B (bin B for high selectivity, ratio>10-fold)”.
For `C[C@H]1Oc2cc(cnc2N)-c2c(C(F)F)cnn2Cc2cc(F)cnc2-c2ccc(F)cc21` [Example 17, (20R)-3-(difluoromethyl)-10,17-difluoro-20-methyl-21-oxa-5,6,12,24-tetraazapentacyclo[20.3.1.0^2,^6.0^8,^13.0^14,^19]hexacosa-1(25),2,4,8(13),9,11,14,16,18,22(26),23-undecaen-23-amine], the TPM3-NTRK1-wt/CD74-ROS1-G2032R entry was “B (bin B for high selectivity, ratio>10-fold)”; the TPM3-NTRK1-wt/CD74-ROS1-wt entry is “A (bin A for very high selectivity, ratio>30-fold)”; the TPM3-NTRK1-wt/EML4-ALK-L1196M-G1202R entry was “D (bin D for low selectivity, ratio<1)”; the TPM3-NTRK1-wt/EML4-ALK-wt entry was “B (bin B for high selectivity, ratio>10-fold)”.
On to `Cc1nc(C#N)c2n1Cc1cccnc1-c1ccc(F)cc1[C@@H](C)Oc1cc-2cnc1N` [Example 18, (20R)-23-amino-17-fluoro-5,20-dimethyl-21-oxa-4,6,12,24-tetraazapentacyclo[20.3.1.0^2,^6.0^8,^13.0^14,^19]hexacosa-1(25),2,4,8(13),9,11,14,16,18,22(26),23-undecaene-3-carbonitrile], for which the TPM3-NTRK1-wt/CD74-ROS1-G2032R entry is listed as “A (bin A for very high selectivity, ratio>30-fold)”; the TPM3-NTRK1-wt/CD74-ROS1-wt result was “A (bin A for very high selectivity, ratio>30-fold)”; the TPM3-NTRK1-wt/EML4-ALK-L1196M-G1202R result is on record as “A (bin A for very high selectivity, ratio>30-fold)”; the TPM3-NTRK1-wt/EML4-ALK-wt result is given as “A (bin A for very high selectivity, ratio>30-fold)”.
Turning to `CCc1noc2c1-c1cnc(N)c(c1)O[C@H](C)c1cc(F)ccc1-c1nn(C)cc1C2` [Example 19, (19R)-3-ethyl-16-fluoro-10,19-dimethyl-5,20-dioxa-4,10,11,23-tetraazapentacyclo[19.3.1.0^2,^6.0^8,^12.0^13,^18]pentacosa-1(24),2(6),3,8,11,13,15,17,21(25),22-decaen-22-amine], the TPM3-NTRK1-wt/CD74-ROS1-G2032R entry is “A (bin A for very high selectivity, ratio>30-fold)”; the TPM3-NTRK1-wt/CD74-ROS1-wt entry is “A (bin A for very high selectivity, ratio>30-fold)”; the TPM3-NTRK1-wt/EML4-ALK-L1196M-G1202R entry is on record as “C (bin C for moderate selectivity, ratio≥1)”; the TPM3-NTRK1-wt/EML4-ALK-wt result is recorded as “A (bin A for very high selectivity, ratio>30-fold)”.
As to `CCn1nnc2c1-c1cnc(N)c(c1)O[C@H](C)c1cc(F)ccc1-c1nn(C)cc1C2` [Example 20, (19R)-3-ethyl-16-fluoro-10,19-dimethyl-20-oxa-3,4,5,10,11,23-hexaazapentacyclo[19.3.1.0^2,^6.0^8,^12.0^13,^18]pentacosa-1(24),2(6),4,8,11,13,15,17,21(25),22-decaen-22-amine], the TPM3-NTRK1-wt/CD74-ROS1-G2032R entry is recorded as “A (bin A for very high selectivity, ratio>30-fold)”; the TPM3-NTRK1-wt/CD74-ROS1-wt entry is recorded as “A (bin A for very high selectivity, ratio>30-fold)”; the TPM3-NTRK1-wt/EML4-ALK-L1196M-G1202R result is given as “B (bin B for high selectivity, ratio>10-fold)”; the TPM3-NTRK1-wt/EML4-ALK-wt result is on record as “A (bin A for very high selectivity, ratio>30-fold)”.
As for `C[C@H]1Oc2cc(cnc2N)-c2c(C#N)nn(C)c2Cc2cn(C)nc2-c2ccc(F)cc21` [Example 21, (19R)-22-amino-16-fluoro-5,10,19-trimethyl-20-oxa-4,5,10,11,23-pentaazapentacyclo[19.3.1.0^2,^6.0^8,^12.0^13,^18]pentacosa-1(24),2(6),3,8,11,13,15,17,21(25),22-decaene-3-carbonitrile], the TPM3-NTRK1-wt/CD74-ROS1-G2032R entry is listed as “A (bin A for very high selectivity, ratio>30-fold)”; the TPM3-NTRK1-wt/CD74-ROS1-wt result was “A (bin A for very high selectivity, ratio>30-fold)”; the TPM3-NTRK1-wt/EML4-ALK-L1196M-G1202R result was “B (bin B for high selectivity, ratio>10-fold)”; the TPM3-NTRK1-wt/EML4-ALK-wt entry is “A (bin A for very high selectivity, ratio>30-fold)”.
With `C[C@H]1Oc2cc(cnc2N)-c2c(cnn2CC(F)F)Cc2cn(C)nc2-c2ccc(F)cc21` [Example 22, (19R)-3-(2,2-difluoroethyl)-16-fluoro-10,19-dimethyl-20-oxa-3,4,10,11,23-pentaazapentacyclo[19.3.1.0^2,^6.0^8,^12.0^13,^18]pentacosa-1(24),2(6),4,8,11,13,15,17,21(25),22-decaen-22-amine], the TPM3-NTRK1-wt/CD74-ROS1-G2032R result is listed as “A (bin A for very high selectivity, ratio>30-fold)”; the TPM3-NTRK1-wt/CD74-ROS1-wt result is recorded as “A (bin A for very high selectivity, ratio>30-fold)”; the TPM3-NTRK1-wt/EML4-ALK-L1196M-G1202R result is on record as “A (bin A for very high selectivity, ratio>30-fold)”; the TPM3-NTRK1-wt/EML4-ALK-wt result is recorded as “A (bin A for very high selectivity, ratio>30-fold)”.
